Source: PubChem BioAssay (NCI)
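Where inhibition never reached the appropriate level, the endpoint shown equals the highest concentration tested. Otherwise, values were interpolated linearly from a five-concentration, 48-hour dose response in 96-well plates. The concentration for 50% growth inhibition is given as GI50. TGI is the concentration that stops growth completely.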 Where a SMILES comes first, the peptide text is derived from it. [ ]: non-standard residue; d: D form. The star is where a group is joined. ξ: configuration not given here. Decanoyl(3R-OH) = CCCCCCC[C@@H](O)CC(=O)*; ξK = NCCCCC(N)C(=O)O; ξP = O=C(O)C1CCCN1

Assays:
Test in all cases: growth of human tumour cells (NCI), 48 h
OVCAR-8 ovarian = system: OVCAR-8 ovarian
HL-60(TB) leukemia = system: HL-60(TB) leukemia
DU-145 prostate = system: DU-145 prostate
SK-MEL-2 melanoma = system: SK-MEL-2 melanoma
HOP-92 NSCLC = system: HOP-92 NSCLC
SF-539 CNS = system: SF-539 CNS
RXF 393 renal = system: RXF 393 renal
NCI-H23 lung = system: NCI-H23 lung
ACHN renal = system: ACHN renal
SK-OV-3 ovarian = system: SK-OV-3 ovarian
HT29 colon = system: HT29 colon
HS 578T breast = system: HS 578T breast
CAKI-1 renal = system: CAKI-1 renal
OVCAR-5 ovarian = system: OVCAR-5 ovarian
TK-10 renal = system: TK-10 renal
RPMI-8226 leukemia = system: RPMI-8226 leukemia
M14 melanoma = system: M14 melanoma
SF-295 CNS = system: SF-295 CNS
PC-3 prostate = system: PC-3 prostate
OVCAR-3 ovarian = system: OVCAR-3 ovarian
UO-31 renal = system: UO-31 renal
MDA-MB-231 breast = system: MDA-MB-231 breast
UACC-257 melanoma = system: UACC-257 melanoma
SNB-75 CNS = system: SNB-75 CNS
SK-MEL-28 melanoma = system: SK-MEL-28 melanoma
NCI-H226 lung = system: NCI-H226 lung
A549 NSCLC = system: A549 NSCLC
MALME-3M melanoma = system: MALME-3M melanoma
MOLT-4 leukemia = system: MOLT-4 leukemia
OVCAR-4 ovarian = system: OVCAR-4 ovarian
HOP-62 NSCLC = system: HOP-62 NSCLC
HCC-2998 colon = system: HCC-2998 colon
HCT-15 colon = system: HCT-15 colon
IGROV1 ovarian = system: IGROV1 ovarian
SN12C renal = system: SN12C renal
NCI-H522 lung = system: NCI-H522 lung
KM12 colon = system: KM12 colon
786-0 renal = system: 786-0 renal
NCI-H460 lung = system: NCI-H460 lung
EKVX NSCLC = system: EKVX NSCLC
MDA-MB-435 = system: MDA-MB-435
SR leukemia = system: SR leukemia
SF-268 CNS = system: SF-268 CNS
CCRF-CEM leukemia = system: CCRF-CEM leukemia
MCF7 breast = system: MCF7 breast
COLO 205 colon = system: COLO 205 colon
HCT-116 colon = system: HCT-116 colon
K-562 leukemia = system: K-562 leukemia
NCI/ADR-RES ovarian = system: NCI/ADR-RES ovarian
LOX IMVI melanoma = system: LOX IMVI melanoma
BT-549 breast = system: BT-549 breast
A498 renal = system: A498 renal
SK-MEL-5 melanoma = system: SK-MEL-5 melanoma

In the case of `CCCCCCC[C@@H](O)CC(=O)N[C@H](CCCCN)C(=O)N[C@H](Cc1c[nH]c2ccccc12)C(=O)NC(CCCCN)C(=O)N[C@H](CC(C)C)C(=O)N[C@H](Cc1ccccc1)C(=O)N[C@H](CCCCN)C(=O)N[C@H](CCCCN)C(=O)N[C@H](CC(C)C)C(=O)N1CCCC1C(=O)N[C@H](CCCCN)C(=O)N[C@H](Cc1ccccc1)C(=O)N[C@H](CC(C)C)C(=O)N[C@H](Cc1c[nH]cn1)C(=O)N[C@H](CC(C)C)C(=O)N[C@H](C)C(=O)N[C@H](CCCCN)C(=O)N[C@H](CCCCN)C(=O)N[C@H](Cc1ccccc1)C(=O)O` (stereo partly drawn) ({Decanoyl(3R-OH)}-[dK][dW][ξK][dL][dF][dK][dK][dL][ξP][dK][dF][dL][dH][dL][dA][dK][dK][dF]-OH), the GI50 (OVCAR-8 ovarian) is reported as 0.814 µM, the TGI (OVCAR-8 ovarian) is reported as 33.3 µM and the GI50 (HL-60(TB) leukemia) is reported as 0.743 µM. The TGI (HL-60(TB) leukemia) was 1.71 µM, the GI50 (DU-145 prostate) was 0.607 µM and the TGI (DU-145 prostate) was 1.12 µM.

In the case of `CSc1ccc2c(c1)c(CCN)c(C)n2Cc1ccc(Cl)c(Cl)c1`, the GI50 (SK-MEL-2 melanoma) is reported as 1.74 µM, the TGI (SK-MEL-2 melanoma) is reported as 3.34 µM and the GI50 (HOP-92 NSCLC) is reported as 1.4 µM. It also gave a TGI (HOP-92 NSCLC) of 2.78 µM, a GI50 (SF-539 CNS) of 1.6 µM and a TGI (SF-539 CNS) of 3.04 µM. The GI50 (RXF 393 renal) was 1.66 µM, the TGI (RXF 393 renal) was 3.12 µM and the GI50 (NCI-H23 lung) was 1.73 µM. The TGI (NCI-H23 lung) was 3.3 µM, the GI50 (ACHN renal) was 1.59 µM and the TGI (ACHN renal) was 3.08 µM. It also gave a GI50 (SK-OV-3 ovarian) of 1.69 µM, a TGI (SK-OV-3 ovarian) of 3.09 µM and a GI50 (HT29 colon) of 1.49 µM. The TGI (HT29 colon) was 2.92 µM, the GI50 (DU-145 prostate) was 1.73 µM and the TGI (DU-145 prostate) was 3.21 µM. The GI50 (HS 578T breast) was 2.05 µM, the TGI (HS 578T breast) was 4.8 µM and the GI50 (CAKI-1 renal) was 1.82 µM. For the same molecule, the TGI (CAKI-1 renal) was 3.85 µM, the GI50 (OVCAR-5 ovarian) was 1.51 µM and the TGI (OVCAR-5 ovarian) was 3.13 µM. It also gave a GI50 (TK-10 renal) of 1.51 µM, a TGI (TK-10 renal) of 2.95 µM and a GI50 (RPMI-8226 leukemia) of 2.14 µM. It also gave a TGI (RPMI-8226 leukemia) of 4.66 µM, a GI50 (M14 melanoma) of 1.69 µM and a TGI (M14 melanoma) of 3.22 µM. The GI50 (SF-295 CNS) was 1.69 µM, the TGI (SF-295 CNS) was 3.22 µM and the GI50 (PC-3 prostate) was 1.67 µM. For the same molecule, the TGI (PC-3 prostate) was 3.11 µM, the GI50 (OVCAR-3 ovarian) was 1.7 µM and the TGI (OVCAR-3 ovarian) was 3.15 µM. For the same molecule, the GI50 (UO-31 renal) was 1.59 µM, the TGI (UO-31 renal) was 3.01 µM and the GI50 (MDA-MB-231 breast) was 1.69 µM. The TGI (MDA-MB-231 breast) was 3.39 µM, the GI50 (UACC-257 melanoma) was 2.03 µM and the TGI (UACC-257 melanoma) was 3.74 µM. The GI50 (SNB-75 CNS) was 1.32 µM, the TGI (SNB-75 CNS) was 2.6 µM and the GI50 (SK-MEL-28 melanoma) was 1.67 µM. The TGI (SK-MEL-28 melanoma) was 3.17 µM.

`Cc1ccc(/C=C(\C#N)n2nnc3cc(Cl)c(Cl)cc32)cc1` gave a GI50 (OVCAR-8 ovarian) of 2.87 µM, a TGI (OVCAR-8 ovarian) of over 100 µM and a GI50 (NCI-H226 lung) of 2.88 µM. For the same molecule, the TGI (NCI-H226 lung) was over 100 µM, the GI50 (A549 NSCLC) was 3.58 µM and the TGI (A549 NSCLC) was over 100 µM. The GI50 (MALME-3M melanoma) was 2.18 µM, the TGI (MALME-3M melanoma) was 6.21 µM and the GI50 (MOLT-4 leukemia) was 2.73 µM. For the same molecule, the TGI (MOLT-4 leukemia) was over 100 µM, the GI50 (OVCAR-4 ovarian) was 2.69 µM and the TGI (OVCAR-4 ovarian) was 81.5 µM. The GI50 (HOP-62 NSCLC) was 2.6 µM, the TGI (HOP-62 NSCLC) was over 100 µM and the GI50 (SK-MEL-2 melanoma) was 3.96 µM. For the same molecule, the TGI (SK-MEL-2 melanoma) was over 100 µM, the GI50 (HCC-2998 colon) was 1.9 µM and the TGI (HCC-2998 colon) was 4.12 µM. It also gave a GI50 (HCT-15 colon) of 1.73 µM, a TGI (HCT-15 colon) of 5.99 µM and a GI50 (IGROV1 ovarian) of 2.26 µM. The TGI (IGROV1 ovarian) was 6.48 µM, the GI50 (HOP-92 NSCLC) was 1.61 µM and the TGI (HOP-92 NSCLC) was 9.65 µM. The GI50 (SN12C renal) was 3.13 µM, the TGI (SN12C renal) was 13.1 µM and the GI50 (SF-539 CNS) was 2.53 µM. It also gave a TGI (SF-539 CNS) of 6.6 µM, a GI50 (NCI-H522 lung) of 2.72 µM and a TGI (NCI-H522 lung) of 14.9 µM. The GI50 (RXF 393 renal) was 2.01 µM, the TGI (RXF 393 renal) was 5.69 µM and the GI50 (KM12 colon) was 3.03 µM. The TGI (KM12 colon) was over 100 µM, the GI50 (NCI-H23 lung) was 3.36 µM and the TGI (NCI-H23 lung) was over 100 µM. The GI50 (ACHN renal) was 1.8 µM, the TGI (ACHN renal) was 3.63 µM and the GI50 (HL-60(TB) leukemia) was 1.78 µM. It also gave a TGI (HL-60(TB) leukemia) of 6.94 µM, a GI50 (786-0 renal) of 2.46 µM and a TGI (786-0 renal) of 6 µM. For the same molecule, the GI50 (NCI-H460 lung) was 2.43 µM, the TGI (NCI-H460 lung) was 6.52 µM and the GI50 (EKVX NSCLC) was 3.48 µM. The TGI (EKVX NSCLC) was over 100 µM, the GI50 (MDA-MB-435) was 0.909 µM and the TGI (MDA-MB-435) was 6.8 µM. It also gave a GI50 (SK-OV-3 ovarian) of 3.69 µM, a TGI (SK-OV-3 ovarian) of 91.5 µM and a GI50 (HT29 colon) of 2.59 µM. It also gave a TGI (HT29 colon) of 13.6 µM, a GI50 (DU-145 prostate) of 3.27 µM and a TGI (DU-145 prostate) of over 100 µM. The GI50 (SR leukemia) was 0.417 µM, the TGI (SR leukemia) was 40.6 µM and the GI50 (SF-268 CNS) was 3.66 µM. The TGI (SF-268 CNS) was over 100 µM, the GI50 (CCRF-CEM leukemia) was 1.32 µM and the TGI (CCRF-CEM leukemia) was over 100 µM. The GI50 (MCF7 breast) was 1.88 µM, the TGI (MCF7 breast) was over 100 µM and the GI50 (HS 578T breast) was 2.83 µM. The TGI (HS 578T breast) was over 100 µM, the GI50 (CAKI-1 renal) was 1.09 µM and the TGI (CAKI-1 renal) was 13.8 µM. The GI50 (OVCAR-5 ovarian) was 3.25 µM, the TGI (OVCAR-5 ovarian) was 9.43 µM and the GI50 (TK-10 renal) was 4.4 µM. The TGI (TK-10 renal) was 36.4 µM, the GI50 (RPMI-8226 leukemia) was 1.7 µM and the TGI (RPMI-8226 leukemia) was 4.91 µM. The GI50 (COLO 205 colon) was 2.62 µM, the TGI (COLO 205 colon) was 7.16 µM and the GI50 (M14 melanoma) was 2.18 µM. It also gave a TGI (M14 melanoma) of 5.66 µM, a GI50 (HCT-116 colon) of 1.54 µM and a TGI (HCT-116 colon) of 3 µM. It also gave a GI50 (OVCAR-3 ovarian) of 2.93 µM, a TGI (OVCAR-3 ovarian) of 12.8 µM and a GI50 (K-562 leukemia) of 0.892 µM. For the same molecule, the TGI (K-562 leukemia) was 33.2 µM, the GI50 (UO-31 renal) was 1.59 µM and the TGI (UO-31 renal) was 3.35 µM. For the same molecule, the GI50 (NCI/ADR-RES ovarian) was 2.22 µM, the TGI (NCI/ADR-RES ovarian) was 7.61 µM and the GI50 (LOX IMVI melanoma) was 1.81 µM. It also gave a TGI (LOX IMVI melanoma) of 3.65 µM, a GI50 (MDA-MB-231 breast) of 2.7 µM and a TGI (MDA-MB-231 breast) of 17.2 µM. For the same molecule, the GI50 (UACC-257 melanoma) was 2.95 µM, the TGI (UACC-257 melanoma) was over 100 µM and the GI50 (SNB-75 CNS) was 1.57 µM. It also gave a TGI (SNB-75 CNS) of 9.74 µM, a GI50 (BT-549 breast) of 1.81 µM and a TGI (BT-549 breast) of 4.59 µM. The GI50 (A498 renal) was 1.91 µM, the TGI (A498 renal) was 4.59 µM and the GI50 (SK-MEL-28 melanoma) was 2.05 µM. For the same molecule, the TGI (SK-MEL-28 melanoma) was 4.77 µM, the GI50 (SK-MEL-5 melanoma) was 2.44 µM and the TGI (SK-MEL-5 melanoma) was 6.55 µM.
